According to patent US12091426B2, “Bifunctional degraders of hematopoietic progenitor kinase and therapeutic uses thereof” (Nurix Therapeutics, Inc., priority 2021, dated 2024):

Target: T1, HPK1 (Homo sapiens, UniProt Q92918)
T1 construct: A HiBiT tag was introduced by CRISPR on the N terminus of HPK1 in Jurkat cells; host or cells: Jurkat cells (ATCC TIB-152), monoclonal line with CRISPR knock-in of HiBiT at the endogenous HPK1 locus
Assay: HPK1 Cellular HiBit Degradation Assay
Assay type: cell-based
Conditions: HiBiT HPK1 Jurkat cells, 24 hrs; for DC50: concentration at which 50% of HPK1 was remaining, read-out: DC50 Category; for Dmax: Jurkat, maximum degradation vs DMSO vehicle control, read-out: Dmax Category
Method: HPK1 Cellular HiBit Degradation Assay
A HiBiT tag was introduced by CRISPR on the N terminus of HPK1 in Jurkat cells (ATCC® TIB-152) to allow quantitation of HPK1 protein levels in a monoclonal human cell line. Cells were plated at 1×10^6 cells/mL, 30 uL/well (3×10^4 cells/well) in complete RPMI 1640 (10% heat inactivated FBS, 1% L-glutamine) in 384-well assay plates (Corning, cat. no. 3570). HPK1 chimeric targeting molecules (CTMs) were added in an 11 point dilution series (11-point, 3.16-fold) with a final assay concentration range of 10 uM to 0.1 nM. The parental Jurkat cell line, with no HiBiT insertion, was included in the assay as a background control. Cell treated with a DMSO vehicle control was used to determine the maximum signal defining 100% HPK1 in the cell. Cells were incubated for 24 hrs at 37° C./5% CO2. Following incubation, 30 uL of complete Nano-Glo HiBiT Lytic Detection Reagent (Promega cat. no. N3040) was added. Cells were incubated for 10 min at room temperature and luminescence was read on an EnVision plate reader (Perkin Elmer, 0.1 sec per well). Viability was assessed in the same plate using Cell Titer Fluor (Promega) and read on an EnVision plate reader to ensure results were not the effect of cytotoxicity. Percent HPK1 remaining per sample was calculated as follows:
[formula] % HPK1 remaining values were plotted as a function of compound concentration and curves were fit using the Prism (GraphPad) equation “log(inhibitor) vs response−Variable slope (four parameters)”. Dmax values were calculated by identifying the lowest % remaining and subtracting from 100. DC50 values were determined by extrapolating from the curve the concentration at which 50% of HPK1 was remaining based on the DMSO control.
HiBiT HPK1 Jurkat cell lines were used to evaluate the total protein levels of HPK1 in a robust human cellular high throughput format. The level of HPK1 remaining following treatment with HPK1 CTMs is reported as Dmax (maximum degradation) achieved at 24 hours when compared to vehicle treated controls. […] These decreases were not a result of cytotoxicity measured by a viability assessment.

T1 sequence (Q92918 whole entry): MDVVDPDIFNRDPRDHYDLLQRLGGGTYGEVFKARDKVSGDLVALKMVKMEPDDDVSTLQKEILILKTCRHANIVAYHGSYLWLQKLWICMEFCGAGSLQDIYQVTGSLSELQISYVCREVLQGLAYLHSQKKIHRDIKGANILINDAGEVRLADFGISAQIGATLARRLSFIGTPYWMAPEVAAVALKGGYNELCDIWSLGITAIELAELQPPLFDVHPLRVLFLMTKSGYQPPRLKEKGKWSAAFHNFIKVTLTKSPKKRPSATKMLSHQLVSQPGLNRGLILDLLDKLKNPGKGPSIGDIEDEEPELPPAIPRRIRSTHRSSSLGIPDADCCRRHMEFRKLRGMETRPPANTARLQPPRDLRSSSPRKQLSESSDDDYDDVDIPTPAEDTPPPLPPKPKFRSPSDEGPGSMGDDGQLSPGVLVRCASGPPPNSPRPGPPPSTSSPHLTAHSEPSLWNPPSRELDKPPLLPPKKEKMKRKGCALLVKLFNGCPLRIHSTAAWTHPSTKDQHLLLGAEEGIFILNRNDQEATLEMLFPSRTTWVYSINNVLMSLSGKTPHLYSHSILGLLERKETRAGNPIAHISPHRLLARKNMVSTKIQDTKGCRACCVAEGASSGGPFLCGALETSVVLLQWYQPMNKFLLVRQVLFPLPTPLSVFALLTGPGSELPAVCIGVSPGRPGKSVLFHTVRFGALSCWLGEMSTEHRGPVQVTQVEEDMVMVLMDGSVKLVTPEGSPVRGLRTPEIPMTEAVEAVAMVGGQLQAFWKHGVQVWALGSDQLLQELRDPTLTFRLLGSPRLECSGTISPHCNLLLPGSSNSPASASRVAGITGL

| Compound | DC50 [µM] | Dmax [%] |
| --- | --- | --- |
| CC(C)n1cnc2cc(-c3ccc4c(c3)N([C@H]3C[C@@H](N5CCCCC5)C3)C(=O)C43CCN(C(=O)CN4CCC(OCC#Cc5cccc6c5n(C)c(=O)n6C5CCC(=O)NC5=O)CC4)CC3)nc(NC3CC3)c21 (mixture of isomers) [Example 229, (3RS)-3-[4-(3-{[1-(2-{6-[4-(cyclopropylamino)-3-(propan-2-yl)-3H-imidazo[4,5-c]pyridin-6-yl]-2-oxo-1-[(1S,3S)-3-(piperidin-1-yl)cyclobutyl]-1,2-dihydrospiro[indole-3,4′-piperidin]-1′-yl}-2-oxoethyl)piperidin-4-yl]oxy}prop-1-yn-1-yl)-3-methyl-2-oxo-2,3-dihydro-1H-1,3-benzodiazol-1-yl]piperidine-2,6-dione] | < 0.1 | 70 to 85 |
| CC(C)n1cnc2cc(-c3ccc4c(c3)N([C@H]3C[C@@H](N5CCCCC5)C3)C(=O)C43CCN(C(=O)[C@H]4CC[C@H](C(=O)N5CCC(N(C)c6ccc(C7CCC(=O)NC7=O)cn6)CC5)CC4)CC3)nc(NC3CC3)c21 (mixture of isomers) [Example 137, (3RS)-3-{6-[methyl({1-[(1R,4R)-4-({6-[4-(cyclopropylamino)-3-(propan-2-yl)-3H-imidazo[4,5-c]pyridin-6-yl]-2-oxo-1-[(1S,3S)-3-(piperidin-1-yl)cyclobutyl]-1,2-dihydrospiro[indole-3,4′-piperidin]-1′-yl}carbonyl)cyclohexanecarbonyl]piperidin-4-yl})amino]pyridin-3-yl}piperidine-2,6-dione] | < 0.1 | 70 to 85 |
| CC(C)n1cnc2cc(-c3ccc4c(c3)N([C@H]3C[C@@H](N5CCCCC5)C3)C(=O)C43CCN(C(=O)C4CC5CCC4N(C(=O)C4CCN(c6ccc(C7CCC(=O)NC7=O)cn6)CC4)C5)CC3)nc(NC3CC3)c21 (mixture of isomers) [Example 283, (3RS)-3-(6-{4-[6-({6-[4-(cyclopropylamino)-3-(propan-2-yl)-3H-imidazo[4,5-c]pyridin-6-yl]-2-oxo-1-[(1S,3S)-3-(piperidin-1-yl)cyclobutyl]-1,2-dihydrospiro[indole-3,4′-piperidin]-1′-yl}carbonyl)-2-azabicyclo[2.2.2]Octane-2-carbonyl]piperidin-1-yl}pyridin-3-yl)piperidine-2,6-dione] | 0.1 to 0.5 | 50 to 70 |
| CC(C)n1cnc2cc(-c3ccc4c(c3)N([C@H]3C[C@@H](N5CCCCC5)C3)C(=O)C43CCN(C(=O)[C@@H]4CCN(C(=O)[C@H]5CC[C@H](Oc6ccc(C7CCC(=O)NC7=O)cn6)CC5)C4)CC3)nc(NC3CC3)c21 (mixture of isomers) [Example 16, (3RS)-3-(6-{[(1R,4R)-4-[(3R)-3-({6-[4-(cyclopropylamino)-3-(propan-2-yl)-3H-imidazo[4,5-c]pyridin-6-yl]-2-oxo-1-[(1S,3S)-3-(piperidin-1-yl)cyclobutyl]-1,2-dihydrospiro[indole-3,4′-piperidin]-1′-yl}carbonyl)pyrrolidine-1-carbonyl]cyclohexyl]oxy}pyridin-3-yl)piperidine-2,6-dione] | 0.5 to 1 | 70 to 85 |
| CC(C)n1cnc2cc(-c3ccc4c(c3)N([C@H]3C[C@@H](N5CCCCC5)C3)C(=O)C43CCN(C(=O)N4CCC(C(=O)N5CCN(c6ccc(C7CCC(=O)NC7=O)cn6)CC5)CC4)CC3)nc(NC3CC3)c21 (stereo partly drawn) [Example 181, 3-(6-{4-[1-({6-[4-(cyclopropylamino)-3-(propan-2-yl)-3H-imidazo[4,5-c]pyridin-6-yl]-2-oxo-1-[(1S,3S)-3-(piperidin-1-yl)cyclobutyl]-1,2-dihydrospiro[indole-3,4′-piperidin]-1′-yl}carbonyl)piperidine-4-carbonyl]piperazin-1-yl}pyridin-3-yl)piperidine-2,6-dione] | 0.1 to 0.5 | 50 to 70 |
| CC(C)n1cnc2cc(-c3ccc4c(c3)N([C@H]3C[C@@H](N5CCCCC5)C3)C(=O)C43CCN(C(=O)C4CCN(C(=O)N5CCC(c6ccc(C7CCC(=O)NC7=O)cn6)CC5)CC4)CC3)nc(Nc3ccccc3F)c21 (mixture of isomers) [Example 97, (3RS)-3-[6-(1-{4-[(6-{4-[(2-fluorophenyl)amino]-3-(propan-2-yl)-3H-imidazo[4,5-c]pyridin-6-yl}-2-oxo-1-[(1S,3S)-3-(piperidin-1-yl)cyclobutyl]-1,2-dihydrospiro[indole-3,4′-piperidin]-1′-yl)carbonyl]piperidine-1-carbonyl}piperidin-4-yl)pyridin-3-yl]piperidine-2,6-dione] | 0.5 to 1 | 50 to 70 |
| CC(C)n1cnc2cc(-c3ccc4c(c3)N([C@H]3C[C@@H](N5CCCCC5)C3)C(=O)C43CCN(C(=O)[C@H]4[C@@H]5CN(C(=O)C6CCN(c7ccc(C8CCC(=O)NC8=O)cn7)CC6)C[C@@H]54)CC3)nc(NC3CC3)c21 (mixture of isomers) [Example 260, (3RS)-3-(6-{4-[(1R,5S,6S)-6-({6-[4-(cyclopropylamino)-3-(propan-2-yl)-3H-imidazo[4,5-c]pyridin-6-yl]-2-oxo-1-[(1S,3S)-3-(piperidin-1-yl)cyclobutyl]-1,2-dihydrospiro[indole-3,4′-piperidin]-1′-yl}carbonyl)-3-azabicyclo[3.1.0]hexane-3-carbonyl]piperidin-1-yl}pyridin-3-yl)piperidine-2,6-dione] | < 0.1 | 70 to 85 |
| CC(C)n1cnc2cc(-c3ccc4c(c3)N([C@H]3C[C@@H](N5CCCCC5)C3)C(=O)C43CCN(C(=O)C4(C)CCN(C(=O)C5CCN(c6ccc(N7CCC(=O)NC7=O)cn6)CC5)CC4)CC3)nc(Nc3ccccc3F)c21 [Example 116, 1-[6-(4-{4-[(6-{4-[(2-fluorophenyl)amino]-3-(propan-2-yl)-3H-imidazo[4,5-c]pyridin-6-yl}-2-oxo-1-[(1S,3S)-3-(piperidin-1-yl)cyclobutyl]-1,2-dihydrospiro[indole-3,4′-piperidin]-1′-yl)carbonyl]-4-methylpiperidine-1-carbonyl}piperidin-1-yl)pyridin-3-yl]-1,3-diazinane-2,4-dione] | < 0.1 | > 85 |
| CC(C)n1cnc2cc(-c3ccc4c(c3)N([C@H]3C[C@@H](N5CCCCC5)C3)C(=O)C43CCN(C(=O)C4CCN(C(=O)C5CCN(c6ccc(N7CCC(=O)NC7=O)cc6)CC5)CC4)CC3)nc(NC3CC3)c21 [Example 69, 1-(4-{4-[4-({6-[4-(cyclopropylamino)-3-(propan-2-yl)-3h-imidazo[4,5-c]pyridin-6-yl]-2-oxo-1-[(1S,3S)-3-(piperidin-1-yl)cyclobutyl]-1,2-dihydrospiro[indole-3,4′-piperidin]-1′-yl}carbonyl)piperidine-1-carbonyl]piperidin-1-yl}phenyl)-1,3-diazinane-2,4-dione] | < 0.1 | 70 to 85 |
| CC(C)n1cnc2cc(-c3ccc4c(c3)N([C@H]3C[C@@H](N5CCCCC5)C3)C(=O)C43CCN(C(=O)C4CCN(C(=O)C5CCN(c6ccc7c(c6)C(=O)N(C6CCC(=O)NC6=O)C7=O)CC5)CC4)CC3)nc(Nc3ccccc3F)c21 (mixture of isomers) [Example 87, 2-[(3RS)-2,6-dioxopiperidin-3-yl]-5-(4-{4-[(6-{4-[(2-fluorophenyl)amino]-3-(propan-2-yl)-3H-imidazo[4,5-c]pyridin-6-yl}-2-oxo-1-[(1S,3S)-3-(piperidin-1-yl)cyclobutyl]-1,2-dihydrospiro[indole-3,4′-piperidin]-1′-yl)carbonyl]piperidine-1-carbonyl}piperidin-1-yl)-2,3-dihydro-1H-isoindole-1,3-dione] | < 0.1 | 70 to 85 |
